Results reported in ChEMBL document CHEMBL1150338, “Prediction and identification of drug interactions with the human ATP-binding cassette transporter multidrug-resistance associated protein 2 (MRP2; ABCC2)” (J Med Chem, 2008).
Structures can show the parent of a compound that is named as a salt.

Biological target: MRP2 (ABCC2) (Homo sapiens, UniProt Q92887)
Assay: in vitro
[1] = probe estradiol-17-beta-glucuronide
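Also: Inside-out membrane vesicles from Sf9 insect cells expressing human MRP2, measuring uptake of the estradiol glucuronide substrate, expressed as percent of untreated control.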

Chain of MRP2 (ABCC2) (Q92887 whole entry): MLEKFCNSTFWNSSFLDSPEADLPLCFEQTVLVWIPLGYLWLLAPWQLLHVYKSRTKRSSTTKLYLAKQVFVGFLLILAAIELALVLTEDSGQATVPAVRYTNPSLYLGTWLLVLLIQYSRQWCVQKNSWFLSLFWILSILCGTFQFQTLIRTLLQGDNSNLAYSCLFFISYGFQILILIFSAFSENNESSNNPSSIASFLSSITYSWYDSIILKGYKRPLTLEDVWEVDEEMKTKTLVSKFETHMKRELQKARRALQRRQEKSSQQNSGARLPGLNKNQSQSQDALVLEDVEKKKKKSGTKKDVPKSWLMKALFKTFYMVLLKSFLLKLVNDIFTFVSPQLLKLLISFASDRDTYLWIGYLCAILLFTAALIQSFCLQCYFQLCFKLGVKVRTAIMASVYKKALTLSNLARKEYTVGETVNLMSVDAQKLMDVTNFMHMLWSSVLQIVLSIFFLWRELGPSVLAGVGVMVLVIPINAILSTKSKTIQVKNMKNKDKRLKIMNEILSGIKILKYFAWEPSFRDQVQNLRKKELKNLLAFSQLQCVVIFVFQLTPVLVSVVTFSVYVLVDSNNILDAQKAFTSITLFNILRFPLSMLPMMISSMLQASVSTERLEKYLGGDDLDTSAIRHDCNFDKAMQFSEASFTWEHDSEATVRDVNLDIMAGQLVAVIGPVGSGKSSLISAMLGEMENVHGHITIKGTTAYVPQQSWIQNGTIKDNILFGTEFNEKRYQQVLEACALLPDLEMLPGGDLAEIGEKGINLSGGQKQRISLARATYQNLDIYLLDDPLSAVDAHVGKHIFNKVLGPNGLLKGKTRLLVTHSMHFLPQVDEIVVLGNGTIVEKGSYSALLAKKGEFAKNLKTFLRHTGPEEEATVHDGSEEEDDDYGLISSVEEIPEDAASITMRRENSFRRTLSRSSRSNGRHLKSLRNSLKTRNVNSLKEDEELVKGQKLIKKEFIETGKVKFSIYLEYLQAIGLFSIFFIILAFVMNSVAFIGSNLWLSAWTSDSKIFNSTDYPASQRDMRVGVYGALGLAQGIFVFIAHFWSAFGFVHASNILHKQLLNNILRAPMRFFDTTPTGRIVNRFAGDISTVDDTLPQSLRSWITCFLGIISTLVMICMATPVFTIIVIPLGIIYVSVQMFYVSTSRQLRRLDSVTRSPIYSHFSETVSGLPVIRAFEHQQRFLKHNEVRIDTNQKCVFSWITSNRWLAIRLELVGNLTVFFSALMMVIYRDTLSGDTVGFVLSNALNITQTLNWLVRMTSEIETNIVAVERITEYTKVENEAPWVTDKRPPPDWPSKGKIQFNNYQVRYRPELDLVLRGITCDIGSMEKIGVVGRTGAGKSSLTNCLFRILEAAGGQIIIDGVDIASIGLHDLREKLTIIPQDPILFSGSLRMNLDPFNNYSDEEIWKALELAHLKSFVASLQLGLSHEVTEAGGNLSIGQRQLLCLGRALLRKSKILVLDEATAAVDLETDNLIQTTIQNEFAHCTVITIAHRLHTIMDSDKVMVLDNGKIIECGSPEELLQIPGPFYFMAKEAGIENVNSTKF
Description: Effect on human MRP2-mediated estradiol-17-beta-glucuronide transport in Sf9 cells inverted membrane vesicles relative to control

CCCC(CCC)C(=O)O [VALPROIC ACID]
activity [1]: 94%

Cc1ccnc2c1NC(=O)c1cccnc1N2C1CC1 [NEVIRAPINE]
activity [1]: 121%

O=C(O)Cc1ccccc1Nc1c(Cl)cccc1Cl [DICLOFENAC]
activity [1]: 198%

O=c1c(O)c(-c2ccc(O)cc2O)oc2cc(O)cc(O)c12 [MORIN]
activity [1]: 50%

CC#C[C@]1(O)CC[C@H]2[C@@H]3CCC4=CC(=O)CCC4=C3[C@@H](c3ccc(N(C)C)cc3)C[C@@]21C [MIFEPRISTONE]
activity [1]: 134%

CNC(=C[N+](=O)[O-])NCCSCc1ccc(CN(C)C)o1 [RANITIDINE]
activity [1]: 52%

Cc1cc(=O)n(-c2ccccc2)n1C [ANTIPYRINE]
activity [1]: 84%

C=C[C@H]1C[N@@]2CC[C@H]1C[C@@H]2[C@@H](O)c1ccnc2ccc(OC)cc12 [QUINIDINE]
activity [1]: 64%

CNC(=C[N+](=O)[O-])NCCSCc1csc(CN(C)C)n1 [NIZATIDINE]
activity [1]: 110%

COc1ccc(CCN2CCC(Nc3nc4ccccc4n3Cc3ccc(F)cc3)CC2)cc1 [ASTEMIZOLE]
activity [1]: 36%

CC[C@H]1OC(=O)[C@H](C)[C@@H](O[C@H]2C[C@@](C)(OC)[C@@H](O)[C@H](C)O2)[C@H](C)[C@@H](O[C@@H]2O[C@H](C)C[C@H](N(C)C)[C@H]2O)[C@](C)(O)C[C@@H](C)C(=O)[C@H](C)[C@@H](O)[C@]1(C)O [ERYTHROMYCIN]
activity [1]: 89%

C[N+](C)(C)C[C@H](O)CC(=O)[O-] [CARNITINE]
activity [1]: 84%

COc1ccc2c(c[n+](C)c3c4cc5c(cc4ccc23)OCO5)c1OC [CHELERYTHRINE CHLORIDE]
activity [1]: 43%

CC(C)OC(=O)C(C)(C)Oc1ccc(C(=O)c2ccc(Cl)cc2)cc1 [FENOFIBRATE]
activity [1]: 46%

COCCc1ccc(OCC(O)CNC(C)C)cc1 (centres undefined) [METOPROLOL]
activity [1]: 72%

CC(=O)[C@H]1CC[C@H]2[C@@H]3CCC4=CC(=O)CC[C@]4(C)[C@H]3CC[C@]12C [PROGESTERONE]
activity [1]: 123%

CN1CCC[C@H]1c1cccnc1 [NICOTINE]
activity (sf9): 101%

COc1ccc2c(c1OC)C(=O)O[C@@H]2[C@H]1c2c(cc3c(c2OC)OCO3)CCN1C [NOSCAPINE]
activity [1]: 78%

O=C1OC(c2ccc(O)c(S(=O)(=O)O)c2)(c2ccc(O)c(S(=O)(=O)O)c2)c2c(Br)c(Br)c(Br)c(Br)c21 [SULFOBROMOPHTHALEIN SODIUM]
activity [1]: 5%

CN/C(=N/CCSCc1nc[nH]c1C)NC#N [CIMETIDINE]
activity (sf9): 91%

CC(C)N(CC[C@](C(N)=O)(c1ccccc1)c1ccccn1)C(C)C [(S)-DISOPYRAMIDE]
activity [1]: 104%

COc1cc([C@@H]2c3cc4c(cc3[C@@H](O[C@@H]3O[C@@H]5CO[C@@H](C)O[C@H]5[C@H](O)[C@H]3O)[C@H]3COC(=O)[C@H]23)OCO4)cc(OC)c1O [ETOPOSIDE]
activity [1]: 110%

CCC(C)(C)C(=O)O[C@H]1C[C@@H](C)C=C2C=C[C@H](C)[C@H](CC[C@@H]3C[C@@H](O)CC(=O)O3)[C@H]21 [SIMVASTATIN]
activity [1]: 61%

CN(Cc1cnc2nc(N)nc(N)c2n1)c1ccc(C(=O)N[C@@H](CCC(=O)O)C(=O)O)cc1 [METHOTREXATE]
activity (sf9): 130%

CCc1oc2ccccc2c1C(=O)c1cc(Br)c(O)c(Br)c1 [BENZBROMARONE]
activity [1]: 11%

CNCC[C@@H](Oc1ccccc1C)c1ccccc1 [ATOMOXETINE]
activity [1]: 109%

O=C1C(CC[S+]([O-])c2ccccc2)C(=O)N(c2ccccc2)N1c1ccccc1 (centres undefined) [SULFINPYRAZONE]
activity [1]: 150%

Clc1ccccc1C(c1ccccc1)(c1ccccc1)n1ccnc1 [CLOTRIMAZOLE]
activity [1]: 14%

Cc1c(OCC(F)(F)F)ccnc1C[S+]([O-])c1nc2ccccc2[nH]1 (centres undefined) [LANSOPRAZOLE]
activity [1]: 34%

C[C@]12CC[C@@H]3c4ccc(OS(=O)(=O)O)cc4CC[C@H]3[C@@H]1CCC2=O [ESTRONE SULFURIC ACID]
activity [1]: 300%

C=C(C)[C@H]1Cc2c(ccc3c2O[C@@H]2COc4cc(OC)c(OC)cc4[C@@H]2C3=O)O1 [ROTENONE]
activity [1]: 92%

CC(=O)O[C@H]1C[C@@]2(C)[C@@H](C[C@@H](O)[C@H]3[C@@]4(C)CC[C@@H](O)[C@@H](C)[C@@H]4CC[C@@]32C)/C1=C(\CCC=C(C)C)C(=O)O [FUSIDIC ACID]
activity [1]: 72%

CN(C)C(=O)C(CCN1CCC(O)(c2ccc(Cl)cc2)CC1)(c1ccccc1)c1ccccc1 [LOPERAMIDE]
activity [1]: 46%

CNCCCN1c2ccccc2CCc2ccccc21 [DESIPRAMINE]
activity [1]: 57%

NNC(=O)c1ccncc1 [ISONIAZID]
activity [1]: 96%

CCCC1O[C@@H]2C[C@H]3[C@@H]4CCC5=CC(=O)C=C[C@]5(C)[C@H]4[C@@H](O)C[C@]3(C)[C@]2(C(=O)CO)O1 (some centres undefined) [BUDESONIDE]
activity [1]: 150%

COc1cc2c(c(OC)c1OC)-c1ccc(OC)c(=O)cc1[C@@H](NC(C)=O)CC2 [COLCHICINE]
activity [1]: 101%

C[C@]12CC[C@@H]3c4ccc(O)cc4CC[C@H]3[C@@H]1CC[C@@H]2O [ESTRADIOL]
activity [1]: 123%

O=C(O)[C@H]1O[C@@H](Oc2ccc([N+](=O)[O-])cc2)[C@H](O)[C@@H](O)[C@@H]1O
activity [1]: 99%

CC1=C(CC(=O)O)c2cc(F)ccc2/C1=C\c1ccc(S(C)(=O)=O)cc1 [EXISULIND]
activity [1]: 113%

CCCNCC(O)COc1ccccc1C(=O)CCc1ccccc1 (centres undefined) [PROPAFENONE]
activity (sf9): 58%

COc1cccc([C@@]2(O)CCCC[C@@H]2CN(C)C)c1 [TRAMADOL]
activity [1]: 89%

Cn1nnnc1SCC1=C(C(=O)O)N2C(=O)[C@@H](NC(=O)[C@H](O)c3ccccc3)[C@H]2SC1 [CEFAMANDOLE]
activity [1]: 63%

COc1ccc2c(c1)c(CC(=O)O)c(C)n2C(=O)c1ccc(Cl)cc1 [INDOMETHACIN]
activity [1]: 308%

CC(C)[C@H](N)C(=O)OCCOCn1cnc2c(=O)[nH]c(N)nc21 [VALACYCLOVIR]
activity [1]: 94%

CN1[C@@H]2CC[C@H]1C[C@@H](OC(=O)C(CO)c1ccccc1)C2 (some centres undefined) [ATROPINE]
activity [1]: 59%

COc1ccc2c3c([nH]c2c1)[C@H](CC(C)C)N1C(=O)[C@H](CCC(=O)OC(C)(C)C)NC(=O)[C@@H]1C3
activity (sf9): 73%

COc1ccc(-c2coc3cc(O)cc(O)c3c2=O)cc1 [BIOCHANIN]
activity [1]: 84%

Nc1ccc(O)c(C(=O)O)c1 [MESALAMINE]
activity [1]: 109%

C[n+]1ccc(-c2ccccc2)cc1
activity [1]: 72%

CC(=O)Nc1ccc(O[C@@H]2O[C@H](C(=O)O)[C@@H](O)[C@H](O)[C@H]2O)cc1 [ACETAMINOPHEN GLUCURONIDE]
activity [1]: 150%

C[C@]12CCC(=O)C=C1CC[C@@H]1[C@@H]2[C@@H](O)C[C@@]2(C)[C@H]1CC[C@]2(O)C(=O)CO [HYDROCORTISONE]
activity [1]: 124%

CCCCOc1ccc(OCCCN2CCOCC2)cc1 [PRAMOXINE]
activity [1]: 69%

Cc1ccc(NC(=O)c2ccc(CN3CCN(C)CC3)cc2)cc1Nc1nccc(-c2cccnc2)n1 [IMATINIB MESYLATE]
activity [1]: 74%

CC(NC(C)(C)C)C(=O)c1cccc(Cl)c1 (centres undefined) [BUPROPION]
activity [1]: 106%

CC(C(=O)O)c1ccc(-c2ccccc2)c(F)c1 (centres undefined) [FLURBIPROFEN]
activity [1]: 108%

CC1(C)C(/C=C/C=C/C=C/C=C2\N(CCCCS(=O)(=O)O)c3ccc4ccccc4c3C2(C)C)=[N+](CCCCS(=O)(=O)[O-])c2ccc3ccccc3c21 [INDOCYANINE GREEN]
activity [1]: 5%

Nc1nc2c(c(=O)[nH]1)N(C=O)C(CNc1ccc(C(=O)N[C@@H](CCC(=O)O)C(=O)O)cc1)CN2 (some centres undefined) [LEUCOVORIN]
activity [1]: 103%

CCC1=C(C)CN(C(=O)NCCc2ccc(S(=O)(=O)NC(=O)N[C@H]3CC[C@H](C)CC3)cc2)C1=O [GLIMEPIRIDE]
activity [1]: 142%

CC(=O)Oc1ccc2c(c1)Oc1cc(OC(C)=O)ccc1C21OC(=O)c2cc(C(=O)O)ccc21
activity [1]: 7%

C[C@H](CCC(=O)O)[C@H]1CC[C@H]2[C@@H]3[C@H](O)C[C@@H]4C[C@H](O)CC[C@]4(C)[C@H]3CC[C@]12C [CHENODIOL]
activity [1]: 101%

O=C(O)c1cc(/N=N/c2ccc(S(=O)(=O)Nc3ccccn3)cc2)ccc1O [SULFASALAZINE]
activity [1]: 77%

CN(C)[C@@H]1C(O)=C(C(N)=O)C(=O)[C@@]2(O)C(O)=C3C(=O)c4c(O)cccc4[C@@](C)(O)[C@H]3C[C@@H]12 [TETRACYCLINE]
activity (sf9): 110%

CC/C(=C(\c1ccccc1)c1ccc(OCCN(C)C)cc1)c1ccccc1 [TAMOXIFEN]
activity [1]: 8%

Nc1ncnc2c1ncn2CCOCP(=O)(O)O [ADEFOVIR]
activity [1]: 96%

O=C(CCCN1CCC(O)(c2ccc(Cl)cc2)CC1)c1ccc(F)cc1 [HALOPERIDOL]
activity [1]: 106%

C[C@H](CCC(=O)NCCS(=O)(=O)O)[C@H]1CC[C@H]2[C@@H]3CC[C@@H]4C[C@H](O)CC[C@]4(C)[C@H]3CC[C@]12C [TAUROLITHOCHOLIC ACID]
activity [1]: 27%

Nc1ccc(C(=O)NCC(=O)O)cc1 [AMINOHIPPURIC ACID]
activity [1]: 46%

CC(C)(C(=O)O)c1ccc(C(O)CCCN2CCC(C(O)(c3ccccc3)c3ccccc3)CC2)cc1 (centres undefined) [FEXOFENADINE]
activity [1]: 97%

CC(=O)Nc1ccc(S(=O)(=O)Nc2ccc([N+](=O)[O-])cc2)cc1
activity [1]: 116%

Cc1cnc(C(=O)NCCc2ccc(S(=O)(=O)NC(=O)NC3CCCCC3)cc2)cn1 [GLIPIZIDE]
activity [1]: 81%

CC(=O)CC(c1ccccc1)c1c(O)c2ccccc2oc1=O (centres undefined) [WARFARIN]
activity [1]: 136%

CC[C@]1(O)C[C@H]2CN(CCc3c([nH]c4ccccc34)[C@@](C(=O)OC)(c3cc4c(cc3OC)N(C=O)[C@H]3[C@@](O)(C(=O)OC)[C@H](OC(C)=O)[C@]5(CC)C=CCN6CC[C@]43[C@@H]65)C2)C1 [VINCRISTINE]
activity [1]: 82%

NS(=O)(=O)c1cc2c(cc1Cl)NCNS2(=O)=O [HYDROCHLOROTHIAZIDE]
activity [1]: 94%

CCOC(=O)N1CCC(=C2c3ccc(Cl)cc3CCc3cccnc32)CC1 [LORATADINE]
activity [1]: 6%

CC1(C)[C@@H](O[C@H]2O[C@H](C(=O)O)[C@@H](O)[C@H](O)[C@H]2O[C@@H]2O[C@H](C(=O)O)[C@@H](O)[C@H](O)[C@H]2O)CC[C@]2(C)[C@H]3C(=O)C=C4[C@@H]5C[C@@](C)(C(=O)O)CC[C@]5(C)CC[C@@]4(C)[C@]3(C)CC[C@@H]12 [GLYCYRRHIZIN]
activity [1]: 5%

COC(=O)C1=C(C)NC(C)=C(C(=O)OC(C)C)C1c1cccc2nonc12 (centres undefined) [ISRADIPINE]
activity [1]: 46%

NC(=O)N1c2ccccc2C=Cc2ccccc21 [CARBAMAZEPINE]
activity [1]: 86%

C[C@@H](NCCc1ccc(O)cc1)[C@@H](O)c1ccc(O)cc1 [RITODRINE]
activity [1]: 113%
